How the values were obtained:
osteoclast precursors = assay: cells; format: cell-based; details: read-out: Osteoclast assay
M-NFS-60 cells = assay: cells; details: 67 h, read-out: M-NFS-60 cell proliferation
Procedure: M-NFS-6 Cell Proliferation Assay
A serial dilution of test compound was dispensed into a 384-well black clear bottom plate (Corning, Corning, N.Y.). Two thousand five hundred cells were added per well in 50 μL complete growth medium. […] IC50 values were calculated from a series of percent inhibition values determined at a range of inhibitor concentrations using software routines as implemented in the GraphPad Prism software package.

[1] = tested on: phospho-FMS in THP-1 cells; assay: cells; details: Homo sapiens, THP-1, read-out: pFMS inhibition in THP-1 cells
Procedure: In a separate 96 well black clear bottom plate, one hundred and fifty thousand THP-1 cells were added per well in 100 μL in assay medium. Fifty microliters of diluted compound was then added to the cells. […] Lysates were prepared and used to perform the phospho-FMS ELISA as described by the manufacturer (catalog #DYC3268, R & D Systems, Minneapolis, Minn.). GraphPad Prism was used to calculate IC50 values obtained from data generated from the ELISA assay.

[2] = target: T1, unphosphorylated c-FMS kinase (uFMS, Seq. ID no. 1) (Homo sapiens, UniProt P07333); assay: biochemical
T1 sequence (P07333 538-972): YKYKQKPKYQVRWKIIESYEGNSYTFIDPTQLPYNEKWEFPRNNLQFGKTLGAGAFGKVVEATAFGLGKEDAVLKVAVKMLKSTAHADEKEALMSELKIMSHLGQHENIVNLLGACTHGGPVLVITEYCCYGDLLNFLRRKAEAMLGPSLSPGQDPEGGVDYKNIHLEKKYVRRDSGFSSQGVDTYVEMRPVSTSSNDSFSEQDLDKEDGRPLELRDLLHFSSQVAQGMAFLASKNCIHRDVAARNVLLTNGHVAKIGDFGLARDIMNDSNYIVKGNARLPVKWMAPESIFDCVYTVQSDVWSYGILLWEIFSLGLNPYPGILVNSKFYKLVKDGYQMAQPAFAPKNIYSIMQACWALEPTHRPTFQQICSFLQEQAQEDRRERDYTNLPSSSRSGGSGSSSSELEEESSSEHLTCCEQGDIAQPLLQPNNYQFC
Procedure: In this assay, the oxidation of NADH (thus the decrease at A340 nm) was continuously monitored spectrophometrically. The reaction mixture (100 μL) contained FMS (purchased from Millipore) (10 nM), polyE4Y (1 mg/mL), MgCl2 (10 mM), pyruvate kinase (4 units), lactate dehydrogenase (0.7 units), phosphoenol pyruvate (1 mM), NADH (0.28 mM) and ATP (500 μM) in 90 mM Tris buffer containing 0.2% octyl-glucoside and 1% DMSO, pH 7.5. The inhibition reaction was started by mixing serial diluted test compound with the above reaction mixture. The absorption at 340 nm was monitored continuously for 4 hours at 30° C. on Synergy 2 plate reader. The reaction rate was calculated using the 3 to 4 h time frame. Percent inhibition was obtained by comparison of reaction rate with that of a control (i.e. in the absence of test compound). IC50 values were calculated from a series of percent inhibition values determined at a range of inhibitor concentrations using software routines as implemented in the GraphPad Prism software package.

[3] = target: unphosphorylated c-KIT kinase (uKIT, Seq. ID no. 2) (Homo sapiens, UniProt P10721); assay: biochemical
Procedure: uKit kinase (Seq. ID No. 2) Assay
In this assay, the oxidation of NADH (thus the decrease at A340 nm) was continuously monitored spectrophometrically. […] The inhibition reaction was started by mixing serial diluted test compound with the above reaction mixture. The absorption at 340 nm was monitored continuously for 4 hours at 30° C. on Synergy 2 plate reader (BioTech).

[4] = target: unphosphorylated PDGFRβ kinase (uPDGFRβ, Seq. ID No. 3) (Homo sapiens, UniProt P09619); assay: biochemical
[5] = uFMS, enzymatic assay, ATP 500 μM
[6] = uKIT, enzymatic assay, ATP 2000 μM
[7] = uPDGFRb, enzymatic assay, ATP 500 μM

Chain of unphosphorylated c-KIT kinase (uKIT, Seq. ID no. 2) (P10721 with tags, fused parts or gaps): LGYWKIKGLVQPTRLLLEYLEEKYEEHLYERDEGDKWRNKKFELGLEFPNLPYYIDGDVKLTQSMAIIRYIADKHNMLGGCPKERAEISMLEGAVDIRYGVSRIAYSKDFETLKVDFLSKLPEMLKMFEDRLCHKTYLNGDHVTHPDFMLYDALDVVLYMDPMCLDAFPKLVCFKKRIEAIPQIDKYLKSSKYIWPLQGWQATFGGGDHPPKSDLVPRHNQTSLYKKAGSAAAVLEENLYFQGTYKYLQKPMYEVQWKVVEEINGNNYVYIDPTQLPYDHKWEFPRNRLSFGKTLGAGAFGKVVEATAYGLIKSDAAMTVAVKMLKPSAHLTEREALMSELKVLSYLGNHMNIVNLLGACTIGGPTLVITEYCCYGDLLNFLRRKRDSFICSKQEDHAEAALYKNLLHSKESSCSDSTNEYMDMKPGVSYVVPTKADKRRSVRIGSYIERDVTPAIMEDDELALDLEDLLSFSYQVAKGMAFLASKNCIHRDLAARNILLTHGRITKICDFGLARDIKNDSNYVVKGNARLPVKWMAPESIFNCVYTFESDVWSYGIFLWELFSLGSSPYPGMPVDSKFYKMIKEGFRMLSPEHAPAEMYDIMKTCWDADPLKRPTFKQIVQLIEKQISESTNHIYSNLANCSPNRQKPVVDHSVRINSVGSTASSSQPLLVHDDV
Chain of unphosphorylated PDGFRβ kinase (uPDGFRβ, Seq. ID No. 3) (P09619 557-1106): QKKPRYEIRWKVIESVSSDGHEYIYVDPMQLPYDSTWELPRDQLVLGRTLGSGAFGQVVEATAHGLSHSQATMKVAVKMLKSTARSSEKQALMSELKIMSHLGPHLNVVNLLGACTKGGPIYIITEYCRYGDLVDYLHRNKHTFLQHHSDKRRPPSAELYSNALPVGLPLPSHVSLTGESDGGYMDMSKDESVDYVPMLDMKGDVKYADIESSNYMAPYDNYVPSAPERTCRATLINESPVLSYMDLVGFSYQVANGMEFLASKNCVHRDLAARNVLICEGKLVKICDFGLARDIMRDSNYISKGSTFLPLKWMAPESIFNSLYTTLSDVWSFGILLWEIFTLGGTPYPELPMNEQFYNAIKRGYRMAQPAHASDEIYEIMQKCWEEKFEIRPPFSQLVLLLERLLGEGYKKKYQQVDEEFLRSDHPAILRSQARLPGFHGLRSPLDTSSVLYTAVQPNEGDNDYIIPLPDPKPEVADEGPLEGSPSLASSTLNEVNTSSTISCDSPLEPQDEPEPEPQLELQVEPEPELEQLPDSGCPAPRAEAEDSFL

Row | Structure (SMILES) | IC50 (osteoclast precursors) [nM] | IC50 (M-NFS-60 cells) [nM] | IC50 [1] [nM] | IC50 [2, 5] [nM] | IC50 [3, 6] [nM] | IC50 [4, 7] [nM] | IC50 ([2]; IC50 (nM) uFMS, Table 3) [nM] | IC50 ([3]; IC50 (nM) uKIT, Table 3) [nM] | IC50 ([4]; IC50 (nM) uPDGFRβ, Table 3) [nM]
1 | Cn1cc(-c2cc(Oc3ccc(NC(=O)NC(=O)C45CC6CC(CC(C6)C4)C5)nc3)ccn2)cn1 [Example 38, N-((5-((2-(1-methyl-1H-pyrazol-4-yl)pyridin-4-yl)oxy)pyridin-2-yl)carbamoyl)adamantane-1-carboxamide] | 10 to 100 | 10 to 100 | 10 to 100 | < 10 | 10 to 100 | < 10 | – | – | –
2 | CN1CCN(CC(=O)NC(=O)Nc2ccc(Oc3ccnc(-c4cnn(C)c4)c3)cn2)CC1 [Example 49, N-((5-((2-(1-methyl-1H-pyrazol-4-yl)pyridin-4-yl)oxy)pyridin-2-yl)carbamoyl)-2-(4-methylpiperazin-1-yl)acetamide] | 100 to 1000 | > 1000 | 100 to 1000 | 10 to 100 | > 1000 | > 1000 | – | – | –
3 | Cn1cc(-c2cc(Oc3ccc(NC(=O)NC(=O)C4CC4)nc3)ccn2)cn1 [Example 51, N-((5-((2-(1-methyl-1H-pyrazol-4-yl)pyridin-4-yl)oxy)pyridin-2-yl)carbamoyl)cyclopropanecarboxamide] | < 10 | 10 to 100 | < 10 | < 10 | 100 to 1000 | > 1000 | – | – | –
4 | CCn1cc(-c2cc(Oc3ccc(NC(=O)NC(=O)C(C)(C)C)nc3C)ccn2)cn1 [Example 60, N-((5-((2-(1-ethyl-1H-pyrazol-4-yl)pyridin-4-yl)oxy)-6-methylpyridin-2-yl)carbamoyl)pivalamide] | 10 to 100 | 10 to 100 | < 10 | < 10 | > 1000 | > 1000 | – | – | –
5 | CCn1cc(-c2cc(Oc3ccc(NC(=O)NC(=O)C(C)C)nc3C)ccn2)cn1 [Example 61, N-((5-((2-(1-ethyl-1H-pyrazol-4-yl)pyridin-4-yl)oxy)-6-methylpyridin-2-yl)carbamoyl)isobutyramide] | < 10 | 10 to 100 | < 10 | < 10 | > 1000 | > 1000 | – | – | –
6 | Cn1cc(-c2cc(Oc3ccc(NC(=O)NC(=O)C4CCOC4)nc3)ccn2)cn1 (stereo not drawn) [Example 66, N-((5-((2-(1-methyl-1H-pyrazol-4-yl)pyridin-4-yl)oxy)pyridin-2-yl)carbamoyl)tetrahydrofuran-3-carboxamide] | < 10 | 10 to 100 | < 10 | < 10 | 100 to 1000 | > 1000 | – | – | –
7 | CCC(C)(C)C(=O)NC(=O)Nc1ccc(Oc2ccnc(-c3cnn(C)c3)c2)c(C)n1 [Example 69, 2,2-dimethyl-N-((6-methyl-5-((2-(1-methyl-1H-pyrazol-4-yl)pyridin-4-yl)oxy)pyridin-2-yl)carbamoyl)butanamide] | 10 to 100 | < 10 | 10 to 100 | < 10 | 100 to 1000 | 100 to 1000 | – | – | –
8 | Cc1ncc(-c2cc(Oc3ccc(NC(=O)NC(=O)C(C)(C)C)nc3)ccn2)s1 [Example 70, N-((5-((2-(2-methylthiazol-5-yl)pyridin-4-yl)oxy)pyridin-2-yl)carbamoyl)pivalamide] | < 10 | 10 to 100 | 10 to 100 | < 10 | > 1000 | 100 to 1000 | 4 | 2600 | 922
9 | Cc1ccc(-c2cc(Oc3ccc(NC(=O)NC(=O)C(C)C)nc3C)ccn2)cn1 [Example 71, N-((6-methyl-5-((6′-methyl-[2,3′-bipyridin]-4-yl)oxy)pyridin-2-yl)carbamoyl)isobutyramide] | < 10 | 10 to 100 | 10 to 100 | < 10 | > 1000 | > 1000 | – | – | –
10 | COC(C)(C)C(=O)NC(=O)Nc1ccc(Oc2ccnc(-c3ccc(C)nc3)c2)cn1 [Example 72, 2-methoxy-2-methyl-N-((5-((6′-methyl-[2,3′-bipyridin]-4-yl)oxy)pyridin-2-yl)carbamoyl)propanamide] | < 10 | 10 to 100 | < 10 | < 10 | > 1000 | 100 to 1000 | – | – | –

Source: patent US9382228B2 (priority 2013, dated 2016)
